Target: T1, human recombinant mGluR5 (Homo sapiens, UniProt P41594)
T1 construct: expressed in transfected cells; host or cells: HEK 293 cell line, cultured with tetracycline, hygromycin and geneticin; tetracycline is withdrawn 3-7 days before the assay
Test: positive modulation of mGluR5, calcium based FLIPR assay
Type: cell-based
Conditions: EC50 of the modulation; HEK 293 cell line expressing human recombinant mGluR5; peak height of Ca fluorescence signal after glutamate at approx. 5% basal stimulation; read-out: EC50
Experimental: The positive modulation of mGluR5 is measured in a HEK 293 cell line expressing human recombinant mGluR5 and is detected with calcium based FLIPR assay. The cells are cultured with DMEM supplemented with 10% FCS, 2 μg/mL tetracycline, 100 μg/mL hygromycin and 500 μg/mL gneticin. The cell culture media is exchanged for tetracycline-free cell culture media 3-7 days before the assay. One day before the assay the cell culture medium is exchanged to DMEM without glutamine and phenol red and supplemented with 10% FCS, 100 μg/mL hygromycin and 500 μg/mL geneticin. On the assay day, the medium of the subconfluent cultures is removed and the cells are detached by addition of 2.5 ml EDTA (0.02%) per 175 cm2 culture flask for 1 minute. The cells are resuspend in Ringer solution (140 mM NaCl, 5 mM KCl, 2.5 mM CaCl2, 1.5 mM MgCl2, 5 mM Glucose, 10 mM Hepes; adjusted to pH 7.4 with NaOH), pooled and Ringer solution added to adjust the volume to 50 mL. The cell suspension is centrifuged for 5 min at 1500 U/min (425 g). The supernatant is removed and the cells washed a second time with 50 ml fresh Ringer solution and centrifuged again as before. The supernatant is again removed and the pellet resuspended in Ringer solution to 1,000,000 cells/ml (1×10^6 cells/mL). The cells are plated onto BD BioCoat Poly-D-Lysine 384 well plates (20.000 cells/well; 20 μl/well). The lid covered plates are then incubated until use at 37° C./10% CO2. For dye loading, 20 μl of Calcium-4 assay kit solution (prepared according to the manufacturer's description in Ringer solution) are added to the cells and the plates are incubated for 80 min 37° C. and then 10 min at room temperature. • Controls, Compound dilution and assay execution: • Each assay plate contained wells with “high” and “low” controls:
Low controls 1% DMSO/ringer solution+basal glutamate activation (defined as 100% CTL).
High controls 10 μM CDPPB+basal glutamate activation (defined as 200% CTL).
Test compounds are dissolved and diluted in DMSO to 100-fold the desired concentrations. In a second step, the compounds are diluted in Ringer solution such that the compounds are 4-fold more concentrated than the desired final assay concentration. The final DMSO concentration was 1%.
20 μl of each compound solution are then transferred to the assay plate and the Ca2+ kinetic is measured to determine any intrinsic compound activity. After 5 min incubation in the FLIPR device, the second stimulation with 20 μl of glutamate in Ringer solution (glutamate concentration adjusted to approximately 5% basal stimulation of the maximal possible glutamate effect) is added and the kinetic Ca2+ response of the wells was measured for the modulation effect.
The peak height of the Ca release related fluorescence signal (9-66) is used for the EC50. The EC50 of the modulation is calculated over a nonlinear regression with GraphPad Prism (Table 1).

T1 sequence (P41594 21-1212): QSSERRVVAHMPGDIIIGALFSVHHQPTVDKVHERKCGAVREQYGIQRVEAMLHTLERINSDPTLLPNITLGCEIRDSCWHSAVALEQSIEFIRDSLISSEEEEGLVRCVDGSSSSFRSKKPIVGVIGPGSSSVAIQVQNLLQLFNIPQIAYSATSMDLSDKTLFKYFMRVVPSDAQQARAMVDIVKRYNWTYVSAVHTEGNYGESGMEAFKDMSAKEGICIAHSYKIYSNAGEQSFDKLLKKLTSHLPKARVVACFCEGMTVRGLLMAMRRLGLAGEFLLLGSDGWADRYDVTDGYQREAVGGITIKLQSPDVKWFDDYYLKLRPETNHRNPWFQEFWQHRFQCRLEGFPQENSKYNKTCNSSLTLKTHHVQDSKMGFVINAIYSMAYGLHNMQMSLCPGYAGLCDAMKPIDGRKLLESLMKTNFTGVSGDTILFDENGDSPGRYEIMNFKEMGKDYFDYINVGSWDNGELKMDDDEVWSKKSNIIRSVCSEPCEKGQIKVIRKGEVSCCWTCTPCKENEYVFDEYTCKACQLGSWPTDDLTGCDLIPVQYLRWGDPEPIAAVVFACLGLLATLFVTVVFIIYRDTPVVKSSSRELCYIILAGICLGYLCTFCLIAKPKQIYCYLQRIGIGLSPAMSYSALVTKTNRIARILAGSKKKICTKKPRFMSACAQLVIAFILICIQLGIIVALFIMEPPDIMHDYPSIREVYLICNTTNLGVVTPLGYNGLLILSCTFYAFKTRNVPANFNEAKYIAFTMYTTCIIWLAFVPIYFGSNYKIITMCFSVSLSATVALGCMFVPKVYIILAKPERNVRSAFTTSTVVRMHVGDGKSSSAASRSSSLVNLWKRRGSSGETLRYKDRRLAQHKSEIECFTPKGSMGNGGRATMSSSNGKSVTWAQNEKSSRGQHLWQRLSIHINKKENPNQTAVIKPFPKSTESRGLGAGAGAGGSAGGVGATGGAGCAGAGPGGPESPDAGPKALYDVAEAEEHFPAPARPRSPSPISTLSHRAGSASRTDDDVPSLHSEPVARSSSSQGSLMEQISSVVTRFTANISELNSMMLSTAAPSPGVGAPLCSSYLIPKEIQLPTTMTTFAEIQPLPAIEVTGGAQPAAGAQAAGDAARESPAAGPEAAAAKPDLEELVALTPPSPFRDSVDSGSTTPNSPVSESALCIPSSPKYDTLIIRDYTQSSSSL

Structure (SMILES) | EC50
N#Cc1ccc2c(c1)CCN(C(=O)Cn1nc(-c3ccc(F)cc3)nc1-c1ccc(F)cc1)C2 [Example 7.02.48.] | 972 nM
Cn1ncc2c1CN(C(=O)Cn1nc(-c3ccc(F)cc3)nc1-c1ccc(F)cc1)C2 [Example 7.02.49.] | 1360 nM
O=C(Cn1nc(-c2ccc(F)cc2)nc1-c1ccc(F)cc1)N1CCc2cc(O)ccc2C1 [Example 7.02.53.] | 229 nM
Cc1nc2c(o1)CN(C(=O)Cn1nc(-c3ccc(F)cc3)nc1-c1ccc(F)cc1)CC2 [Example 7.02.54.] | 206 nM
Cc1ncc2c(n1)CCN(C(=O)Cn1nc(-c3ccc(F)cc3)nc1-c1ccc(F)cc1)C2 [Example 7.02.55.] | 1200 nM
Cc1nc2c(s1)CN(C(=O)Cn1nc(-c3ccc(F)cc3)nc1-c1ccc(F)cc1)CC2 [Example 7.02.56.] | 932 nM
O=C(Cn1nc(-c2ccc(F)cc2)nc1-c1ccc(F)cc1)N1Cc2ccc(O)cc2C1 [Example 7.02.58.] | 214 nM
COc1ncc2c(n1)CCN(C(=O)Cn1nc(-c3ccc(F)cc3)nc1-c1ccc(F)cc1)C2 [Example 7.02.60.] | 294 nM
COc1cc2c(cc1OC)CCN(C(=O)Cn1nc(-c3ccc(F)cc3)nc1-c1ccc(F)cc1)CC2 [Example 7.02.62.] | 311 nM
O=C(Cn1nc(-c2ccc(F)cc2)nc1-c1ccc(F)cc1)N1Cc2nc(-c3ccccc3)sc2C1 [Example 7.02.63.] | 1010 nM
Cc1nc2c(o1)CCN(C(=O)Cn1nc(-c3ccc(F)cc3)nc1-c1ccc(F)cc1)C2 [Example 7.02.65.] | 407 nM
O=C(Cn1nc(-c2ccc(F)cc2)nc1-c1ccc(F)cc1)N1CC=C(c2ccccc2)CC1 [Example 7.02.66.] | 559 nM
O=C(Cn1nc(-c2ccc(F)cc2)nc1-c1ccc(F)cc1)N1CCN(c2nnc(C(F)(F)F)s2)CC1 [Example 7.02.68.] | 198 nM
CC(C)c1ncc2c(n1)CCN(C(=O)Cn1nc(-c3ccc(F)cc3)nc1-c1ccc(F)cc1)C2 [Example 7.02.70.] | 376 nM
O=C(Cn1nc(-c2ccc(F)cc2)nc1-c1ccc(F)cc1)N1CCN(c2noc3ccccc23)CC1 [Example 7.02.73.] | 148 nM
O=C(Cn1nc(-c2ccc(F)cc2)nc1-c1ccc(F)cc1)N1CCN(c2ncnc3sccc23)CC1 [Example 7.02.74.] | 798 nM
O=C(Cn1nc(-c2ccc(F)cc2)nc1-c1ccc(F)cc1)N1CCN(c2ncnc3c2SCC3)CC1 [Example 7.02.76.] | 242 nM
CC(=O)Nc1nc2c(s1)CCN(C(=O)Cn1nc(-c3ccc(F)c(C)c3)nc1-c1ccccc1)CC2 [Example 7.02.77.] | 232 nM
Cc1cc(-c2nc(-c3ccccc3)n(CC(=O)N3CCc4nc(N)sc4C3)n2)ccc1F [Example 7.02.78.] | 274 nM

Structure (SMILES) | EC50
COC(=O)c1ccc2c(c1)CCN(C(=O)Cn1nc(-c3ccc(F)c(C)c3)nc1-c1ccccc1)CC2 [Example 7.02.79.] | 54 nM
Cc1cc(-c2nc(-c3ccccc3)n(CC(=O)N3CCc4ncnc(-c5ccccc5)c4CC3)n2)ccc1F [Example 7.02.80.] | 323 nM
Cc1nc2c(s1)CC(C)N(C(=O)Cn1nc(-c3ccc(F)c(C)c3)nc1-c1ccccc1)CC2 (centres unmarked) [Example 7.02.81.] | 175 nM
Cc1cc(-c2nc(-c3ccccc3)n(CC(=O)N3CCc4cc(-c5ccccc5)nnc4CC3)n2)ccc1F [Example 7.02.82.] | 149 nM
COc1ccc2c(n1)CCN(C(=O)Cn1nc(-c3ccc(F)c(C)c3)nc1-c1ccccc1)CC2 [Example 7.02.83.] | 105 nM
Cc1nc2c(s1)CN(C(=O)Cn1nc(-c3ccc(F)c(C)c3)nc1-c1ccccc1)CC2 [Example 7.02.84.] | 115 nM
COc1nc2c(s1)CCN(C(=O)Cn1nc(-c3ccc(F)c(C)c3)nc1-c1ccccc1)CC2 [Example 7.02.85.] | 33 nM
Cc1nc2c(o1)CCN(C(=O)Cn1nc(-c3ccc(F)c(C)c3)nc1-c1ccccc1)CC2 [Example 7.02.86.] | 28 nM
Cc1cc(-c2nc(-c3ccccc3)n(CC(=O)N3CCc4ncsc4CC3)n2)ccc1F [Example 7.02.87.] | 58.8 nM
Cc1cc(-c2nc(-c3ccccc3)n(CC(=O)N3CCc4ccc(N)cc4CC3)n2)ccc1F [Example 7.02.88.] | 180 nM
Cc1cc(-c2nc(-c3ccccc3)n(CC(=O)N3CCc4cn[nH]c4CC3)n2)ccc1F [Example 7.02.89.] | 194 nM
COc1cc2c(cc1OC)CCN(C(=O)Cn1nc(-c3ccc(F)c(C)c3)nc1-c1ccccc1)CC2 [Example 7.02.90.] | 155 nM
COc1ccc2c(c1)CCN(C(=O)Cn1nc(-c3ccc(F)c(C)c3)nc1-c1ccccc1)CC2 [Example 7.02.91.] | 107 nM
Cc1nc2c(o1)CCN(C(=O)Cn1nc(-c3ccc(F)c(C)c3)nc1-c1ccccc1)C2 [Example 7.02.92.] | 46 nM
Nc1nc2c(s1)CCN(C(=O)Cn1nc(-c3ccc(F)cc3)nc1-c1ccc(F)cc1)CC2 [Example 7.03.001., 1-(2-Amino-4,5,7,8-tetrahydro-thiazolo[4,5-d]azepin-6-yl)-2-(3,5-bis-(4-fluoro-phenyl)-(1,2,4)triazol-1-yl)-ethanone] | 164 nM
O=C(Cn1nc(-c2ccc(F)cc2)nc1-c1ccc(F)cc1)N1CCc2nc(-c3ccccc3)ncc2C1 [Example 7.03.002.] | 708 nM
COc1cc2c(cc1OC)CN(C(=O)Cn1nc(-c3ccc(F)cc3)nc1-c1ccc(F)cc1)CC2 [Example 7.03.006.] | 1680 nM
O=C(Cn1nc(-c2ccc(F)cc2)nc1-c1ccc(F)cc1)N1CCN(Cc2ccccc2)C(=O)C1 [Example 7.03.007.] | 1380 nM
O=C(Cn1nc(-c2ccc(F)cc2)nc1-c1ccc(F)cc1)N1CCN(c2ccccc2)C(=O)C1 [Example 7.03.010.] | 734 nM

Second part, the molecule after the results:

EC50 | Structure (SMILES)
216 nM | O=C(Cn1nc(-c2ccc(F)cc2)nc1-c1ccc(F)cc1)N1CCC(c2ncc(Cl)cn2)CC1 [Example 7.02.50.]
707 nM | O=C(Cn1nc(-c2ccc(F)cc2)nc1-c1ccc(F)cc1)N1CCc2cn[nH]c2CC1 [Example 7.02.51.]
472 nM | O=C(Cn1nc(-c2ccc(F)cc2)nc1-c1ccc(F)cc1)N1CCC(c2ccon2)CC1 [Example 7.02.52.]
1450 nM | O=C(Cn1nc(-c2ccc(F)cc2)nc1-c1ccc(F)cc1)N1CCC(c2ncno2)CC1 [Example 7.02.57.]
450 nM | Cc1nnc(C2CCN(C(=O)Cn3nc(-c4ccc(F)cc4)nc3-c3ccc(F)cc3)CC2)o1 [Example 7.02.59.]
511 nM | Cc1noc(C2CCN(C(=O)Cn3nc(-c4ccc(F)cc4)nc3-c3ccc(F)cc3)CC2)n1 [Example 7.02.61.]
976 nM | O=C(Cn1nc(-c2ccc(F)cc2)nc1-c1ccc(F)cc1)N1CCC(c2ccccn2)C1 (centres unmarked) [Example 7.02.64.]
133 nM | O=C(Cn1nc(-c2ccc(F)cc2)nc1-c1ccc(F)cc1)N1CCc2cccnc2CC1 [Example 7.02.67.]
441 nM | O=C(c1ccccc1)C1CCN(C(=O)Cn2nc(-c3ccc(F)cc3)nc2-c2ccc(F)cc2)CC1 [Example 7.02.71.]
774 nM | O=C(Cn1nc(-c2ccc(F)cc2)nc1-c1ccc(F)cc1)N1CC(c2ccccn2)C1 [Example 7.02.72.]
851 nM | Cc1nc(C2CCN(C(=O)Cn3nc(-c4ccc(F)cc4)nc3-c3ccc(F)cc3)CC2)oc1C [Example 7.03.003.]
1060 nM | O=C(Cn1nc(-c2ccc(F)cc2)nc1-c1ccc(F)cc1)N1CCC(C(O)c2ccccc2)CC1 (centres unmarked) [Example 7.03.004.]
958 nM | O=C(Cn1nc(-c2ccc(F)cc2)nc1-c1ccc(F)cc1)N1CCC(Oc2ccccc2)CC1 [Example 7.03.005.]
752 nM | O=C(Cn1nc(-c2ccc(F)cc2)nc1-c1ccc(F)cc1)N1CCC(c2nnc(-c3ccccc3)o2)CC1 [Example 7.03.008.]
808 nM | O=C(Cn1nc(-c2ccc(F)cc2)nc1-c1ccc(F)cc1)N1CCC(Oc2ccccn2)CC1 [Example 7.03.009.]
453 nM | O=C(Cn1nc(-c2ccc(F)cc2)nc1-c1ccc(F)cc1)N1CCc2ncsc2CC1 [Example 7.03.011.]
1470 nM | O=C(Cn1nc(-c2ccc(F)cc2)nc1-c1ccc(F)cc1)N1CCC(c2ncccn2)CC1 [Example 7.03.012.]
141 nM | Nc1nc2c(s1)CCN(C(=O)Cn1nc(-c3ccc(F)cc3)nc1-c1ccc(F)cc1)CC2 [Example 7.03.013.]

Reference: patent publication US8642774B2, “Compounds” (Boehringer Ingelheim International GmbH, priority 2011, dated 2014)
